Data from ChEMBL document CHEMBL2424513, “Design, synthesis and biological studies of survivin dimerization modulators that prolong mitotic cycle” (Bioorg Med Chem Lett, 2013).
Calls of active or inactive are those of the source. No cut-off for these calls is given here.

Assays:
[1] = target: Baculoviral IAP repeat-containing protein 5 (Homo sapiens) (UniProt O15392); test: Modulation of GFP-tagged survivin dimerization in human PC3 cells assessed as defect in mitotic progression at 50 to 100 nM after 72 hrs by real-time video microscopy; assay type: cell-based; conditions: PC-3
[2] = target: Baculoviral IAP repeat-containing protein 5 (Homo sapiens) (UniProt O15392); test: Modulation of GFP-tagged survivin dimerization in HUVEC assessed as time length of mitosis at 100 nM after 48 hrs by real-time video microscopy (reference value: 51.2 +/- 2.3 mins)
[3] = target: Baculoviral IAP repeat-containing protein 5 (Homo sapiens) (UniProt O15392); test: Modulation of GFP-tagged survivin dimerization in HUVEC assessed as defect in mitotic progression at 50 to 100 nM after 48 hrs by real-time video microscopy relative to control
[4] = target: Baculoviral IAP repeat-containing protein 5 (Homo sapiens) (UniProt O15392); test: Modulation of GFP-tagged survivin dimerization in human PC3 cells assessed as defect in mitotic progression at 10 nM after 72 hrs by real-time video microscopy; assay type: cell-based; conditions: PC-3
[5] = target: Baculoviral IAP repeat-containing protein 5 (Homo sapiens) (UniProt O15392); test: Modulation of GFP-tagged survivin dimerization in HUVEC assessed as reduction in cell number at 50 to 100 nM after 48 hrs by real-time video microscopy relative to control
[6] = target: Baculoviral IAP repeat-containing protein 5 (Homo sapiens) (UniProt O15392); test: Modulation of GFP-tagged survivin dimerization in HUVEC assessed as reduction in cell number at 50 to 100 nM by real-time video microscopy; conditions: TDE = time-dependent effect
[7] = target: Baculoviral IAP repeat-containing protein 5 (Homo sapiens) (UniProt O15392); test: Modulation of GFP-tagged survivin dimerization in human PC3 cells assessed as distorted, diffused or decondensed CPC organization at 50 to 100 nM after 72 hrs by real-time video microscopy relative to control; assay type: cell-based; conditions: PC-3
[8] = target: Baculoviral IAP repeat-containing protein 5 (Homo sapiens) (UniProt O15392); test: Modulation of GFP-tagged survivin dimerization in HUVEC assessed as distorted, diffused or decondensed CPC organization at 10 nM after 48 hrs by real-time video microscopy relative to control
[9] = target: Baculoviral IAP repeat-containing protein 5 (Homo sapiens) (UniProt O15392); test: Modulation of GFP-tagged survivin dimerization in human PC3 cells assessed as reduction in cell number at 50 to 100 nM after 72 hrs by real-time video microscopy relative to control; assay type: cell-based; conditions: PC-3
[10] = target: Baculoviral IAP repeat-containing protein 5 (Homo sapiens) (UniProt O15392); test: Modulation of GFP-tagged survivin dimerization in HUVEC assessed as distorted, diffused or decondensed CPC organization at 50 to 100 nM after 48 hrs by real-time video microscopy relative to control
[11] = target: Baculoviral IAP repeat-containing protein 5 (Homo sapiens) (UniProt O15392); test: Modulation of GFP-tagged survivin dimerization in human PC3 cells assessed as distorted, diffused or decondensed CPC organization at 10 nM after 72 hrs by real-time video microscopy relative to control; assay type: cell-based; conditions: PC-3
[12] = target: Baculoviral IAP repeat-containing protein 5 (Homo sapiens) (UniProt O15392); test: Modulation of GFP-tagged survivin dimerization in HUVEC assessed as defect in mitotic progression at 10 nM after 48 hrs by real-time video microscopy
[13] = target: Baculoviral IAP repeat-containing protein 5 (Homo sapiens) (UniProt O15392); test: Modulation of GFP-tagged survivin dimerization in HUVEC assessed as reduction in cell number after 48 hrs by real-time video microscopy

Baculoviral IAP repeat-containing protein 5 (Homo sapiens), sequence (O15392 whole entry, the tested form may be a part): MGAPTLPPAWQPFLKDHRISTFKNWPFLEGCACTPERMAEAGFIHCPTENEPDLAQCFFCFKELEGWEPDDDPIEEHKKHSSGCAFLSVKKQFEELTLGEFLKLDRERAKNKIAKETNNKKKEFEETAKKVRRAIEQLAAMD

N#Cc1c(-c2ccccc2)cc(-c2cc(Cl)ccc2O)[nH]c1=O
Activity [1]: inactive | TIME [2]: 1.04 h | Activity [3]: inactive

N#Cc1c(-c2cccc(OCc3ccccc3)c2)cc(-c2cc(Cl)cc(I)c2O)[nH]c1=O
Activity [1]: Active | Activity [4]: inactive | Activity [5]: 50% | Activity [6]: tde | Activity [7]: Active | Activity [3]: Active | Activity [8]: inactive | Activity [9]: 50% | Activity [10]: Active | Activity [11]: inactive | Activity [12]: inactive | Activity [13]: Dose-dependent effect

N#Cc1c(-c2cc(OCc3ccccc3)cc(OCc3ccccc3)c2)cc(-c2cc(Cl)ccc2O)[nH]c1=O
Activity [1]: inactive | fold change (FC) [1]: 2 | Activity [4]: inactive | TIME [2]: 2.57 h | Activity [6]: tde | Activity [7]: Active | Activity [3]: inactive | fold change (FC) [3]: 2 | Activity [8]: inactive | Activity [10]: Active | Activity [11]: inactive | Activity [12]: inactive | Activity [13]: Dose-dependent effect
